For the test, the system named is ACE activity in T-cells. Description: ACE activity in T-cells after administration of a protease inhibitor. Type of test: cell-based.

Experimental findings from patent US7022693B2, “Treatment of lipodystrophy” (Ark Therapeutics Ltd., priority 2001, dated 2006) are described below.

As to `CC(C)C[C@H](NC(=O)[C@@H](O)[C@H](N)Cc1ccccc1)C(=O)O` [bestatin], the “ACE activity in T-cells” value is “increased ACE activity”.
